Measured values as given in patent US20160304461A1, “QUINOLONE COMPOUND AND PHARMACEUTICAL COMPOSITION” (OTSUKA PHARMACEUTICAL CO., LTD., priority 2007, published 2016).

Row | melting point [°C] | Compound
1 | 259 to 261 | CCCOc1ccc(F)c2c(=O)c(-c3ccncc3)c[nH]c12 [Example 51, 5-Fluoro-8-propoxy-3-pyridin-4-yl-1H-quinolin-4-one]
2 | 228 to 230 | CCCOc1ccc(F)c2c(=O)c(-c3ccc(Oc4ccccc4)cc3)c[nH]c12 [Example 52, 5-Fluoro-3-(4-phenoxyphenyl)-8-propoxy-1H-quinolin-4-one]
3 | 180 to 181 | CCCOc1ccc(F)c2c(=O)c(-c3ccc(C(C)=O)cc3)c[nH]c12 [Example 54, 3-(4-Acetylphenyl)-5-fluoro-8-propoxy-1H-quinolin-4-one]
4 | 201 to 202 | CCCOc1ccc(F)c2c(=O)c(-c3ccc(C(=O)OC)cc3)c[nH]c12 [Example 55, Methyl 4-(5-fluoro-4-oxo-8-propoxy-1,4-dihydroquinolin-3-yl)benzoate]
5 | 236 to 237 | CCCOc1ccc(F)c2c(=O)c(-c3ccc(C(=O)N4CCCC4)cc3)c[nH]c12 [Example 56, 5-Fluoro-8-propoxy-3-[4-(pyrrolidine-1-carbonyl)phenyl]-1H-quinolin-4-one]
6 | 235 to 237 | CCCOc1ccc(F)c2c(=O)c(-c3ccc(C(=O)N(C)C)cc3)c[nH]c12 [Example 57, 4-(5-Fluoro-4-oxo-8-propoxy-1,4-dihydroquinolin-3-yl)-N,N-dimethylbenzamide]
7 | 210 to 212 | CCCOc1ccc(F)c2c(=O)c(-c3ccco3)c[nH]c12 [Example 58, 5-Fluoro-3-furan-2-yl-8-propoxy-1H-quinolin-4-one]
8 | 190 to 191 | CCCOc1ccc(F)c2c(=O)c(-c3ccsc3C=O)c[nH]c12 [Example 60, 3-(5-Fluoro-4-oxo-8-propoxy-1,4-dihydroquinolin-3-yl)thiophene-2-carbaldehyde]
9 | 156 to 157 | CCCOc1ccc(F)c2c(=O)c(-c3cc(OC)ccc3OC)c[nH]c12 [Example 65, 3-(2,5-Dimethoxyphenyl)-5-fluoro-8-propoxy-1H-quinolin-4-one]
10 | 211 to 212 | CCCOc1ccc(F)c2c(=O)c(-c3ccc(OC)cc3)c(C)[nH]c12 [Example 67, 5-Fluoro-3-(4-methoxyphenyl)-2-methyl-8-propoxy-1H-quinolin-4-one]
11 | 190 to 192 | CCCOc1ccc(F)c2c(=O)c(-c3cccnc3)c(C)[nH]c12 [Example 68, 5-Fluoro-2-methyl-8-propoxy-3-pyridin-3-yl-1H-quinolin-4-one]
12 | 265 to 266 | CCCOc1ccc(F)c2c(=O)c(-c3ccncc3)c(C)[nH]c12 [Example 69, 5-Fluoro-2-methyl-8-propoxy-3-pyridin-4-yl-1H-quinolin-4-one]
13 | 233 to 234 | CCCOc1ccc(F)c2c(=O)c(-c3cccs3)c(C)[nH]c12 [Example 72, 5-Fluoro-2-methyl-8-propoxy-3-thiophen-2-yl-1H-quinolin-4-one]
14 | 255 to 257 | CCCOc1ccc(F)c2c(=O)c(-c3ccc(N(C)C)cc3)c(C)[nH]c12 [Example 73, 3-(4-Dimethylaminophenyl)-5-fluoro-2-methyl-8-propoxy-1H-quinolin-4-one]
15 | 196 to 197 | CCCOc1ccc(F)c2c(=O)c(-c3ccc(F)cc3)c(C)[nH]c12 [Example 74, 5-Fluoro-3-(4-fluorophenyl)-2-methyl-8-propoxy-1H-quinolin-4-one]
16 | 100 to 101 | CCCOc1ccc(F)c2c(=O)c(-c3ccc(OC)cc3OC)c(C)[nH]c12 [Example 75, 3-(2,4-Dimethoxyphenyl)-5-fluoro-2-methyl-8-propoxy-1H-quinolin-4-one]

More lines, now with the values behind:

Row | Compound | melting point [°C]
17 | CCCOc1ccc(F)c2c(=O)c(-c3ccc(OC)c(F)c3)c[nH]c12 [Example 2, 5-Fluoro-3-(3-fluoro-4-methoxyphenyl)-8-propoxy-1H-quinolin-4-one] | 194 to 195
18 | CCCOc1ccc(F)c2c(=O)c(-c3ccc(OC(F)(F)F)cc3)c[nH]c12 [Example 5, 5-Fluoro-8-propoxy-3-(4-trifluoromethoxyphenyl)-1H-quinolin-4-one] | 212 to 214
19 | CCCOc1ccc(F)c2c(=O)c(-c3ccccc3OC)c[nH]c12 [Example 7, 5-Fluoro-3-(2-methoxyphenyl)-8-propoxy-1H-quinolin-4-one] | 193 to 195
20 | CCCOc1ccc(F)c2c(=O)c(-c3ccc(OC)cc3OC)c[nH]c12 [Example 8, 3-(2,4-Dimethoxyphenyl)-5-fluoro-8-propoxy-1H-quinolin-4-one] | 116 to 118
21 | COc1ccc(-c2c[nH]c3c(OC(C)C)ccc(F)c3c2=O)cc1 [Example 9, 5-Fluoro-8-isopropoxy-3-(4-methoxyphenyl)-1H-quinolin-4-one] | 193 to 194
22 | CCCOc1ccc(F)c2c(=O)c(-c3ccc(Cl)cc3Cl)c[nH]c12 [Example 10, 3-(2,4-Dichlorophenyl)-5-fluoro-8-propoxy-1H-quinolin-4-one] | 256 to 259
23 | CCOc1ccc(F)c2c(=O)c(-c3ccc(OC)cc3)c[nH]c12 [Example 11, 8-Ethoxy-5-fluoro-3-(4-methoxyphenyl)-1H-quinolin-4-one] | 155 to 156
24 | CCOc1ccc(F)c2c(=O)c(-c3ccc(OC)cc3OC)c[nH]c12 [Example 12, 3-(2,4-Dimethoxyphenyl)-8-ethoxy-5-fluoro-1H-quinolin-4-one] | 154 to 155
25 | CCOc1ccc(F)c2c(=O)c(-c3ccc(Cl)cc3Cl)c[nH]c12 [Example 13, 3-(2,4-Dichlorophenyl)-8-ethoxy-5-fluoro-1H-quinolin-4-one] | 236 to 237
26 | COc1ccc(-c2c[nH]c3c(N4CCOCC4)ccc(F)c3c2=O)cc1 [Example 14, 5-Fluoro-3-(4-methoxyphenyl)-8-morpholin-4-yl-1H-quinolin-4-one] | 249 to 251
27 | CCCOc1ccc(F)c2c(=O)c(-c3ccc(OC)cc3OC(C)C)c[nH]c12 [Example 15, 5-Fluoro-3-(2-isopropoxy-4-methoxyphenyl)-8-propoxy-1H-quinolin-4-one] | 204 to 206
28 | CCCOc1ccc(F)c2c(=O)c(-c3ccc(OC)cc3C)c[nH]c12 [Example 16, 5-Fluoro-3-(4-methoxy-2-methylphenyl)-8-propoxy-1H-quinolin-4-one] | 197 to 199
29 | CCCOc1ccc(F)c2c(=O)c(-c3ccc(OC)cc3F)c[nH]c12 [Example 17, 5-Fluoro-3-(2-fluoro-4-methoxyphenyl)-8-propoxy-1H-quinolin-4-one] | 230 to 232
30 | COc1ccc(-c2c[nH]c3c(N4CCCC4)ccc(F)c3c2=O)cc1 [Example 18, 5-Fluoro-3-(4-methoxyphenyl)-8-pyrrolidin-1-yl-1H-quinolin-4-one] | 100 to 105
31 | CCCOc1ccc(F)c2c(=O)c(-c3ccc(OCC)cc3OC)c[nH]c12 [Example 19, 3-(4-Ethoxy-2-methoxyphenyl)-5-fluoro-8-propoxy-1H-quinolin-4-one] | 118 to 120
32 | CCCOc1ccc(F)c2c(=O)c(-c3ccc(OC(C)C)cc3OC)c[nH]c12 [Example 20, 5-Fluoro-3-(4-isopropoxy-2-methoxyphenyl)-8-propoxy-1H-quinolin-4-one] | 113 to 115
33 | COc1ccc(-c2c[nH]c3c(Br)ccc(F)c3c2=O)cc1 [Example 22, 8-Bromo-5-fluoro-3-(4-methoxyphenyl)-1H-quinolin-4-one] | 134 to 135
34 | COc1ccc(-c2c[nH]c3c(C(=O)N4CCCC4)ccc(F)c3c2=O)cc1 [Example 23, 5-Fluoro-3-(4-methoxyphenyl)-8-(pyrrolidin-1-carbonyl)-1H-quinolin-4-one] | 236 to 237
35 | COc1ccc(-c2c[nH]c3c(OCCCNC(C)=O)ccc(F)c3c2=O)cc1 [Example 26, N-{3-[5-Fluoro-3-(4-methoxyphenyl)-4-oxo-1,4-dihydroquinolin-8-yloxy]propyl}acetamide] | 229 to 231
36 | COc1ccc(-c2c[nH]c3c(OCCCNS(C)(=O)=O)ccc(F)c3c2=O)cc1 [Example 27, N-{3-[5-Fluoro-3-(4-methoxyphenyl)-4-oxo-1,4-dihydroquinolin-8-yloxy]propyl}methanesulfonamide] | 120 to 121
37 | COc1ccc(-c2c[nH]c3c(N(C)CC(C)C)ccc(F)c3c2=O)cc1 [Example 28, 5-Fluoro-8-(N-isobutyl-N-methylamino)-3-(4-methoxyphenyl)-1H-quinolin-4-one] | 144 to 145
38 | COc1ccc(-c2c[nH]c3c(N(C)C(C)C)ccc(F)c3c2=O)cc1 [Example 29, 5-Fluoro-8-(N-isopropyl-N-methylamino)-3-(4-methoxyphenyl)-1H-quinolin-4-one] | 267 to 269
39 | CCCOc1ccc(F)c2c(=O)c(-c3ccc(OCC)cc3)c[nH]c12 [Example 33, 3-(4-Ethoxyphenyl)-5-fluoro-8-propoxy-1H-quinolin-4-one] | 203 to 205
40 | COc1ccc(-c2c[nH]c3c(OCC4CCCO4)ccc(F)c3c2=O)cc1 (stereo not drawn) [Example 39, 5-Fluoro-3-(4-methoxyphenyl)-8-(tetrahydrofuran-2-ylmethoxy)-1H-quinolin-4-one] | 108 to 110
41 | COc1ccc(-c2c[nH]c3c(OCC4CCC4)ccc(F)c3c2=O)cc1 [Example 41, 8-Cyclobutylmethoxy-5-fluoro-3-(4-methoxyphenyl)-1H-quinolin-4-one] | 193 to 194
42 | COc1ccc(-c2c[nH]c3c(OC(C)(C)C)ccc(F)c3c2=O)cc1 [Example 42, 8-tert-Butoxy-5-fluoro-3-(4-methoxyphenyl)-1H-quinolin-4-one] | 206 to 208
43 | CCCOc1ccc(F)c2c(=O)c(-c3ccc(OC)cc3)c(CC)[nH]c12 [Example 48, 2-Ethyl-5-fluoro-3-(4-methoxyphenyl)-8-propoxy-1H-quinolin-4-one] | 169 to 171
44 | CCCOc1ccc(F)c2c(=O)c(-c3cccnc3)c[nH]c12 [Example 49, 5-Fluoro-8-propoxy-3-pyridin-3-yl-1H-quinolin-4-one] | 234 to 236
45 | CCCOc1ccc(F)c2c(=O)c(-c3ccc(OCC)c(F)c3)c[nH]c12 [Example 50, 3-(4-Ethoxy-3-fluorophenyl)-5-fluoro-8-propoxy-1H-quinolin-4-one] | 176 to 177
